In patent US12624050B2, “Three fused ring derivative-containing salt or crystal form and pharmaceutical composition thereof” (Shanghai Hansoh Biomedical Co., Ltd., priority 2019, dated 2026):

How the values were obtained:
HCC1954 cell = experiment: In vivo efficacy test, HCC1954 tumor-bearing nude mice; parameters: species or system BALB/c nude mice; settings: oral, 10 mg/kg, once/day, 21 days (Example 22: 19 days)
Description: • a. A strain of HCC1954 cell was taken from the cell bank, recovered with RPMI-1640 medium (RPMI-1640+10% FBS+1% SP), plated in a cell culture flask (cell type, date, name of the experimenter and the like were labeled on the wall of the flask) and cultured in a CO2 incubator (the temperature was 37° C. and the CO2 concentration was 5% in the incubator). • b. Cells were passaged when they covered 80 to 90% of the bottom of the culture flask. After passage, the cells continued to be cultured in the CO2 incubator. This process was repeated until the number of cells was sufficient for the in vivo efficacy test. • c. The cultured cells were collected and counted with an automatic cell counter, and then resuspended with PBS and Matrigel Matrix according to the counting results to prepare a cell suspension (density 5×10^7/mL), which was placed in an ice box for use. 4.3.2 Cell Inoculation • a. The nude mice were labeled with disposable universal ear tags for rats and mice before inoculation. • b. During the inoculation, the cell suspension was mixed well. 0.1 to 1 mL of the cell suspension was drawn with a 1 mL syringe, air bubbles were removed, and then the syringe was placed on an ice pack for use. • c. The nude mouse was bound with the left hand. The position on the right side of the back close to the right shoulder of the nude mouse (inoculation site) was disinfected with 75% alcohol. Inoculation started after 30 seconds. • d. The test nude mice were successively inoculated (each mouse was inoculated with 0.1 mL of cell suspension). 4.3.3 Tumor Measurement, Grouping and Administration of Tumor-Bearing Mice • a. According to the tumor growth, the tumors was measured on 14 to 18 days after inoculation, and the tumor size was calculated. Calculation of tumor volume: tumor volume (mm^3)=length (mm)×width (mm)×width (mm)/2 • b. The tumor-bearing mice were grouped according to their body weight and tumor size by random grouping. • c. The test compounds were administered according to the grouping results (administration route: oral administration; administration dose: 10 mg/kg; administration volume: 10 mL/kg; administration frequency: once/day; administration cycle: 21 days; vehicle: 0.5% CMC/1% Tween 80). • d. Tumors were measured and weighed twice a week after the administration of test compounds began. • e. Animals were euthanized at the end of the experiment. • f. Data were processed by using softwares such as Excel. […] When the tumor regress, TGI (%)=[1−(average tumor volume of the treatment group at the end of the administration−average tumor volume of the treatment group at the beginning of the administration)/average tumor volume of the treatment group at the beginning of the administration]×100%.

PI3Kγ = target: T1, PI3Kγ (Homo sapiens, UniProt P48736); experiment: ADP-Glo Lipid Kinase Assay, PI3Kγ kinase activity; format: biochemical; settings: for Selectivity of PI3Kα vs PI3Kγ: ratio of IC50 values
T1 construct: purchased Thermofisher #PV4786
T1 sequence (P48736 whole entry): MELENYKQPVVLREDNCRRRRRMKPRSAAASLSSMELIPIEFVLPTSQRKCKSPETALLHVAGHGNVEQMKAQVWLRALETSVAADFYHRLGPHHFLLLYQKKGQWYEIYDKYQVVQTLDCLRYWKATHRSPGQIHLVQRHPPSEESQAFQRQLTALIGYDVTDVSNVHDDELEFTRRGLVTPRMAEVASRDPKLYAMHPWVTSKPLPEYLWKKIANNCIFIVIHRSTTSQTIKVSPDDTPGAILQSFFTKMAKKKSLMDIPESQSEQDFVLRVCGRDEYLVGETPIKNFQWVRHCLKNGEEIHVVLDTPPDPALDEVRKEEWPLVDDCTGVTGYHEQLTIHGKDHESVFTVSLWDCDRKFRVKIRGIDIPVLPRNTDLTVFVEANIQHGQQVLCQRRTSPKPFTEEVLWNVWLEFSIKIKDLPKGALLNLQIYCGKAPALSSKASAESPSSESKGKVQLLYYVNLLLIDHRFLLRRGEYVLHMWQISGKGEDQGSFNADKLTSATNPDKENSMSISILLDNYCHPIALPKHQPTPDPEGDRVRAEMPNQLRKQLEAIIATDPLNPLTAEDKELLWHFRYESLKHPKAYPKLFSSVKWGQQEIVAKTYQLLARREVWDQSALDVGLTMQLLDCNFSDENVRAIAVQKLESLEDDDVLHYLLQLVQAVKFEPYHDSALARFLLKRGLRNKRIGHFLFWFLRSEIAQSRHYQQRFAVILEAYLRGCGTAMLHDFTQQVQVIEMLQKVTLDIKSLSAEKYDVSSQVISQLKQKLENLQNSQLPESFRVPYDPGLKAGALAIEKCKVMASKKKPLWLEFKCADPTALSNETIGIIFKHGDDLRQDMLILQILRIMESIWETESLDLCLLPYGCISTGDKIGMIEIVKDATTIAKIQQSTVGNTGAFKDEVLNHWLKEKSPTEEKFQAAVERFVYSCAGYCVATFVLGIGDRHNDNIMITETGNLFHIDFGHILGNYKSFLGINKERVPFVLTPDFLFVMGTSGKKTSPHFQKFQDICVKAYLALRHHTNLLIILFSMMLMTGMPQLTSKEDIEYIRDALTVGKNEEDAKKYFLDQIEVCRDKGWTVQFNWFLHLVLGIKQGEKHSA
Description: (§1) In this experiment, ADP-Glo Lipid Kinase Assay (Promega #V9102) from Promega was used. The lipid kinases PI3Kα/β/γ/δ catalyzed the ATP-to-ADP reaction in the presence of the substrate PIP2:3PS and ATP. The lipid kinase activity was characterized by measuring the ADP content in the reaction, and the half inhibition concentrations IC50 of the compounds on PI3Kα/β/γ/δ kinase activity were obtained.
(§2) Kinase reactions were carried out in white 384-well plates (Perkin Elmer #6007299). 2 μL of the compound of various concentrations diluted with ddH2O containing 1% DMSO was added to each well, and 2 μL of ddH2O containing 1% DMSO was added to positive control wells. Then 2 μL of 0.1 to 2 nM PI3K kinase solution diluted with 5× kinase buffer (HEPES 250 mM, MgCl2 15 mM, NaCl 250 mM, BSA 0.05%) was added to each well, and 2 μL of 5× kinase buffer was added to the negative control wells. 4 μL of 50 μM substrate PIP2:3PS (Promega #V1701) prepared with 10× Dilution buffer and ddH2O was added to all wells. Finally, 2 μL of 50 to 100 μM ATP solution diluted with water was added to start the reaction. After the reaction was carried out at room temperature for 90 to 120 minutes, 10 µL of ADP-Glo Reagent (containing 10 mM MgCl2) was added to each well, and the reaction was carried out at room temperature for 60 minutes to eliminate excess adenosine triphosphate (ATP) in the reaction. Then 20 μL of Kinase Detection Reagent was added to each well. After the reaction was carried out for 20 minutes at room temperature in the dark, the chemiluminescence was measured by BioTek Synergy H1 microplate reader.
(§3) The percentage inhibition data of the compound-treated well was calculated from positive control wells (DMSO control wells) and negative control wells (no kinase added) on the plate {% inhibition=100−[(test compound value−negative control value)]/(positive control value-negative control value)×100}. IC50 values were calculated using GraphPad prism and using a four-parameter nonlinear logistic formula to fit the data of different concentrations and corresponding percent inhibition.

MKN1 (E545K) = experiment: Proliferation inhibition of PI3Kα mutant cancer cells, Cell Titer-Glo, MKN1; format: cell-based; settings: Homo sapiens, MKN-1
Description: (§4) The proliferation inhibitory effect of the compounds of the examples on the PI3Kα mutant cancer cell lines (HCC1954, HGC-27 and MKN1) was detected by Cell Titer-Glo method. Cell lines were cultured in RPMI 1640 medium (Gibco #22400089) containing 10% FBS (Gibco #10091148) and 1% P/S (Hyclone #SV30010) under the condition of 37° C. and 5% CO2. The cells were collected before the experiment, and the cell density was adjusted after cell counting. The cells were seeded in a white 96-well plate (Corning #3610) at a density of 1000 to 10000 cells/well, and incubated in an incubator at 37° C. and 5% CO2 overnight. The prepared compound solutions of different concentrations and the corresponding solvent controls were added to the plate. The plate was again incubated in an incubator at 37° C. and 5% CO2 for 48 to 96 hours. Then the cell plate and its contents were equilibrated to room temperature. 20 to 100 μL of Cell Titer-Glo solution (Promega #G7573) was added to each well, and the plate was shaken and mixed well, then incubated at room temperature for 5 to 30 minutes in the dark. The chemiluminescence was measured by a SynergyH1 microplate reader from BioTek.
(§5) The percentage inhibition data of the compound-treated well was calculated from solvent control wells on the plate {% inhibition=100−([…])×100}. IC50 values were calculated using GraphPad prism and using a four-parameter nonlinear logistic formula to fit the data of different concentrations and corresponding percent inhibition.

PI3Kδ = target: T2, PI3Kδ (Homo sapiens, UniProt O00329); experiment: ADP-Glo Lipid Kinase Assay, PI3Kδ kinase activity; format: biochemical; settings: for Selectivity of PI3Kα vs PI3Kδ: ratio of IC50 values
T2 construct: purchased Carna #11-103
T2 sequence (O00329 whole entry): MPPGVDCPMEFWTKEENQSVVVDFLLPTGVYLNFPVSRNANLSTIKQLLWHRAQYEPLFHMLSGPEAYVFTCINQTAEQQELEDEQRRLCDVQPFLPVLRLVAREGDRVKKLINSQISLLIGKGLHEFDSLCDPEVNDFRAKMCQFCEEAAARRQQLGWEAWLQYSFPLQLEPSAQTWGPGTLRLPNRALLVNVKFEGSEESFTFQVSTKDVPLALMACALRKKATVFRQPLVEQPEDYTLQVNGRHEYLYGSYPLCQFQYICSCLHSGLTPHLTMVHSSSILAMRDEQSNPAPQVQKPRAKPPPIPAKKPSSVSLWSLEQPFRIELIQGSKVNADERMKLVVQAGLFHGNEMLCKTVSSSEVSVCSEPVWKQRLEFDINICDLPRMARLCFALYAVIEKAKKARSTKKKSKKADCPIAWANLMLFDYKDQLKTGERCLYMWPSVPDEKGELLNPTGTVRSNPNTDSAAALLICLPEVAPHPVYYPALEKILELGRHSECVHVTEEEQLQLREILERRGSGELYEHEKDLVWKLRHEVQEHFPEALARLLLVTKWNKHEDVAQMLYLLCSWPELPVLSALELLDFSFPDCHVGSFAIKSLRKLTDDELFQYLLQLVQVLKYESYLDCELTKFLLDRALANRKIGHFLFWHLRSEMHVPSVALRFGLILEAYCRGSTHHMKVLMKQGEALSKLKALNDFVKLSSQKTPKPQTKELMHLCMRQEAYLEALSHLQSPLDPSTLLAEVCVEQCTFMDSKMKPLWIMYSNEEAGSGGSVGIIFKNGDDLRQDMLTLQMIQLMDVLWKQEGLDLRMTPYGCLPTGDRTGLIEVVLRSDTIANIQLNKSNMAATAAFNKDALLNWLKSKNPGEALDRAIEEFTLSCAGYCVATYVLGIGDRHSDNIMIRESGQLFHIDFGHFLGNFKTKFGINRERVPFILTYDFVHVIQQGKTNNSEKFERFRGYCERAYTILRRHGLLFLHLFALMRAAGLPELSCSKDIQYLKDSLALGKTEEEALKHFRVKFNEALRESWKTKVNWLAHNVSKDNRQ
T2 sequence (P27986 whole entry partner): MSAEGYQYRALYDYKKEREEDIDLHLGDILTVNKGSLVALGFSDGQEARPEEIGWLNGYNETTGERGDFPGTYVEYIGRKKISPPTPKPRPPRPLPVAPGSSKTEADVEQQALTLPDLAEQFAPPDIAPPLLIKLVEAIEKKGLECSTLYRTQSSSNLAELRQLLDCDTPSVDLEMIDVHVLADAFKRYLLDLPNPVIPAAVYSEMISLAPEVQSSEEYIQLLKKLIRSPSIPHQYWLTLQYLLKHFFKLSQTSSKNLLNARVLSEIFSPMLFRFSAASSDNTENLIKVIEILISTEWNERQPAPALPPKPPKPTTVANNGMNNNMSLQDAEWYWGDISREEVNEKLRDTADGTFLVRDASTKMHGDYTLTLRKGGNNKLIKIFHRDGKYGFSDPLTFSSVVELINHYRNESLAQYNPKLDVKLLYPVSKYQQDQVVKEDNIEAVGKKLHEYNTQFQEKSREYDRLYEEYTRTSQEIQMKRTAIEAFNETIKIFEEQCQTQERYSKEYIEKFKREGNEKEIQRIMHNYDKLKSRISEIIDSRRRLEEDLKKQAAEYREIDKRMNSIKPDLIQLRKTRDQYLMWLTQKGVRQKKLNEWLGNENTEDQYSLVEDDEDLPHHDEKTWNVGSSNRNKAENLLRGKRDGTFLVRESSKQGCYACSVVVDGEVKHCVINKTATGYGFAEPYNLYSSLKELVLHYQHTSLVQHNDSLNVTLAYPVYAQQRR
Description: as §1, §2, §3

HGC-27 (E542K) = experiment: Proliferation inhibition of PI3Kα mutant cancer cells, Cell Titer-Glo, HGC-27; format: cell-based; settings: Homo sapiens
Description: as §4, §5

PI3Kβ = target: T3, PI3Kβ (Homo sapiens, UniProt P42338); experiment: ADP-Glo Lipid Kinase Assay, PI3Kβ kinase activity; format: biochemical; settings: for Selectivity of PI3Kα vs PI3Kβ: ratio of IC50 values
T3 construct: purchased Carna #11-102
T3 sequence (P42338 whole entry): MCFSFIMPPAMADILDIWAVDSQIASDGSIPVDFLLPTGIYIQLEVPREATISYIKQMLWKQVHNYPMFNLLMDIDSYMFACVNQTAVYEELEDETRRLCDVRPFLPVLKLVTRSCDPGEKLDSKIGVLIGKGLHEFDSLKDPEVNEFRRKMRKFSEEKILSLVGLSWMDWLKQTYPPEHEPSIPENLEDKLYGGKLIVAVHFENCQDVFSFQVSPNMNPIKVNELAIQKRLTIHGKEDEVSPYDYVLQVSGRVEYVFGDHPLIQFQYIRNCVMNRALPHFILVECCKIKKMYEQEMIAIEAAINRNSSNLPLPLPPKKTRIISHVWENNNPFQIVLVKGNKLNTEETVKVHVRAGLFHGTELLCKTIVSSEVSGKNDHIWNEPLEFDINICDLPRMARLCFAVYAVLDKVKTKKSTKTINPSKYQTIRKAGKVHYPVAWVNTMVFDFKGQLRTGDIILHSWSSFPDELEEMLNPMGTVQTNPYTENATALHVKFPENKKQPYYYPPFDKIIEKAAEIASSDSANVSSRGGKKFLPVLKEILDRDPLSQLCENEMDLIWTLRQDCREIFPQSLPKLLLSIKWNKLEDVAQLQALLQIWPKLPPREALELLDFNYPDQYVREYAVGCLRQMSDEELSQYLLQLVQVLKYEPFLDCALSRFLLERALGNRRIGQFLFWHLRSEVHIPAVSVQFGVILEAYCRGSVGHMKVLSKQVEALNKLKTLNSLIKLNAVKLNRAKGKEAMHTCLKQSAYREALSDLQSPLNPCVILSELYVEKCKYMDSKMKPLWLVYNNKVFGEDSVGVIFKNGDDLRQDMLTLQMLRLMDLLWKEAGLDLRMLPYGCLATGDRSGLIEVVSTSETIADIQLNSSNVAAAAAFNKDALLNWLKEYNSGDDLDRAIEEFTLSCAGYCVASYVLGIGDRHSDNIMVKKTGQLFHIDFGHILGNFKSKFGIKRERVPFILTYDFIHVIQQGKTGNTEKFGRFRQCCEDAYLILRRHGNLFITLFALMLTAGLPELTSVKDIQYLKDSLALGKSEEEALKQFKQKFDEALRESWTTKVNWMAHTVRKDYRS
T3 sequence (P27986 whole entry partner): as the sequence (P27986 whole entry partner) above
Description: as §1, §2, §3

HCC1954 (H1047R) = experiment: Proliferation inhibition of PI3Kα mutant cancer cells, Cell Titer-Glo, HCC1954; format: cell-based; settings: Homo sapiens
Description: as §4, §5

Compound | Tumor growth inhibition rate (HCC1954 cell) | Selectivity of PI3Kα vs PI3Kγ (PI3Kγ) | IC50 (MKN1 (E545K)) | Selectivity of PI3Kα vs PI3Kδ (PI3Kδ) | IC50 (HGC-27 (E542K)) | Selectivity of PI3Kα vs PI3Kβ (PI3Kβ) | IC50 (HCC1954 (H1047R)) | IC50 (PI3Kγ) | IC50 (PI3Kδ) | IC50 (PI3Kβ)
C[C@H](Nc1ccc2c(c1)OCCn1cc(N3C(=O)SC[C@H]3C(F)F)nc1-2)C(N)=O [Example 22, (S)-2-((2-((R)-4-(difluoromethyl)-2-oxothiazolidin-3-yl)-5,6-dihydrobenzo[f]imidazo[1,2-d][1,4]oxazepin-9-yl)amino)propionamide] | 132% | 450 | 60 nM | 245 | 40 nM | 840 | 21 nM |  |  | 
C[C@H](Nc1ccc2c(c1)N(C)CCn1cc(N3C(=O)OC[C@H]3C(F)F)nc1-2)C(N)=O [Example 56, (S)-2-((2-((S)-4-(difluoromethyl)-2-oxooxazolidin-3-yl)-7-methyl-6,7-dihydro-5H-benzo[f]imidazo[1,2-d][1,4]diazoheptin-9-yl)amino)propionamide] | 122% | 180 | 104 nM | 98 | 110 nM | 336 | 50 nM | 90 nM | 49 nM | 168 nM
C[C@H](Nc1ccc2c(c1)SCCn1cc(N3C(=O)OC[C@H]3C(F)F)nc1-2)C(N)=O [Example 62, (S)-2-((2-((S)-4-(difluoromethyl)-2-oxooxazolidin-3-yl)-5,6-dihydrobenzo[f]imidazo[1,2-d][1,4]thiazepin-9-yl)amino)propionamide] | 147% | 500 | 25 nM | 280 | 22 nM | 1020 | 13 nM | 50 nM | 28 nM | 102 nM
